Source: patent publication US10618902B2, “Substituted pyrido[2,3-d]pyrimidines as inhibitors of protein kinases” (Celgene CAR LLC, priority 2013, dated 2020)
Where two headings read alike, the source gives them in different places.

Experiments:
[1] = target: FGFR4-WT (Homo sapiens (Human), UniProt P22455); assay: Omnia assay for potency against FGFR4 enzyme; format: biochemical; details: method a: FGFR4-WT (Invitrogen) 10 nM, ATP 300 uM, Y10-Sox 10 uM
Procedure: A 10× stock solution of FGFR4-WT (PR4380C or P3054), (from Invitrogen, Carlsbad, Calif.) corresponding to method a in Table 10, was prepared as described below. Alternatively, a 10× stock solution of FGFR4-WT (F01-11G), (SignalChem, Richmond, BC) corresponding to method b in Table 10, was prepared as described below. A solution of 1.4×ATP (AS001A) and 5× Tyr-Sox conjugated peptide substrate (KNZ3101) were prepared in 1× kinase reaction buffer consisting of 20 mM Tris, pH 7.5, 5 mM MgCl2, 1 mM EGTA, 5 mM […], 5% glycerol (10× stock, KB002A) and 0.2 mM DTT (DS001A). […] The serially diluted compounds were prepared on a Tecan EVO100. A second addition of 10 μl of Tyr-Sox FGFR4 substrate was added to each well and the kinase reactions were started with the addition of 35 μL of 1.4×ATP. The reactions were monitored every 71 seconds for 240 minutes at λex360/λem485 in a Synergy plate reader from BioTek (Winooski, Vt.). […] Methods:
a) [FGFR4-WT]=10 nM, [ATP]=300 uM, [Y10-Sox]=10 uM (ATP KMapp−300 uM),

[2] = test system: Huh7 cells; assay: Cell proliferation, Huh7 (CellTiter Glo); format: cell-based
Procedure: (§1) The growth inhibition (GI50) values were determined by Graph Pad Prism.

[3] = target: pFGFR4 (Huh7 cells) (Homo sapiens (Human), UniProt P22455); assay: FGFR4 signaling (pFGFR4) in Huh7 cells (MSD); format: cell-based; details: read-out: Signaling EC50 (nM) pFGFR4 (Huh)
[4] = test system: MDA-MB-453 cells; assay: Cell proliferation, MDA-MB-453 (CellTiter Glo); format: cell-based; details: 96 hr
Procedure: as §1

[5] = 120 hr, read-out: Cell Proliferation GI50 (nM) HUH

Sequence of FGFR4-WT (P22455 22-802): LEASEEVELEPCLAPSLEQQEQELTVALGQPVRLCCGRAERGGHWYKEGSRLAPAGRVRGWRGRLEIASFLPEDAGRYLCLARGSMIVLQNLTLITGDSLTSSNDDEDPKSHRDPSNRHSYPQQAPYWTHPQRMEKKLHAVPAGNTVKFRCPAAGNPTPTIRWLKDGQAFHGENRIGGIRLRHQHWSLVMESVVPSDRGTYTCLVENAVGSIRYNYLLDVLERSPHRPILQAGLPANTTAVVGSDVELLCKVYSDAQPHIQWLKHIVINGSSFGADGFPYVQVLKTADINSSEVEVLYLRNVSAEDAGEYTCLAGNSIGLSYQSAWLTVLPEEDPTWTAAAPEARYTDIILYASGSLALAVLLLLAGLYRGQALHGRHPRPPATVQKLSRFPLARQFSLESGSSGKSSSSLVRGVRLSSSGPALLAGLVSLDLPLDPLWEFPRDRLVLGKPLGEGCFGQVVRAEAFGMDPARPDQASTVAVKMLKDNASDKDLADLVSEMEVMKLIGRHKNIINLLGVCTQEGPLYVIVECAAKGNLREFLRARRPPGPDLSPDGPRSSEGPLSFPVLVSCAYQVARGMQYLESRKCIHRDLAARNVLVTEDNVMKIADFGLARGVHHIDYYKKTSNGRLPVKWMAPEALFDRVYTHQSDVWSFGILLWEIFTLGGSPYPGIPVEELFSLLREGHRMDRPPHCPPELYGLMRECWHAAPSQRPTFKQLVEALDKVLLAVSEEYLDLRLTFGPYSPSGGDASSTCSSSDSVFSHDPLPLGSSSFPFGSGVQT
Sequence of pFGFR4 (Huh7 cells) (P22455 22-802): as above

| SMILES | IC50 [1] | GI50 [2, 5] | EC50 [3] | GI50 ([2]; Homo sapiens, Huh-7, 120 hr) | GI50 ([4]; Homo sapiens) | GI50 [4] |
| --- | --- | --- | --- | --- | --- | --- |
| C=CC(=O)N[C@H]1COC[C@H]1Nc1ncc2cc(-c3c(Cl)c(OC)cc(OC)c3Cl)c(=O)n(CCOC)c2n1 [Compound I-295] | < 100 nM | < 100 nM | < 100 nM |  |  |  |
| C=CC(=O)N[C@H]1COC[C@H]1Nc1ncc2cc(-c3c(Cl)c(OC)cc(OC)c3Cl)c(=O)nc-2n1C[C@H]1CCN(C(C)=O)C1 [Compound I-299] | < 100 nM | 101 to 500 nM | < 100 nM |  |  |  |
| C=CC(=O)N[C@H]1COC[C@H]1Nc1ncc2cc(-c3c(Cl)c(OC)cc(OC)c3Cl)c(=O)nc-2n1CCO [Compound I-303] | < 100 nM | 101 to 500 nM | < 100 nM |  |  |  |
| C=CC(=O)N[C@H]1COC[C@H]1Nc1ncc2cc(-c3cc(OC)cc(OC)c3Cl)c(=O)nc-2n1C[C@H]1CCN(C(C)=O)C1 [Compound I-301] | < 100 nM | < 100 nM | < 100 nM |  |  |  |
| C=CC(=O)N[C@H]1COC[C@H]1Nc1ncc2cc(-c3c(Cl)c(OC)cc(OC)c3Cl)c(=O)nc-2n1C1CCOCC1 [Compound I-300] | < 100 nM |  | < 100 nM |  |  |  |
| C=CC(=O)N[C@H]1COC[C@H]1Nc1ncc2cc(-c3c(F)c(OC)cc(OC)c3F)c(=O)n(C)c2n1 [Compound I-281] |  |  |  | < 100 nM | 101 to 500 nM |  |
| C=CC(=O)N[C@H]1COC[C@H]1Nc1ncc2cc(-c3cc(OC)cc(OC)c3Cl)c(=O)n(C)c2n1 [Compound I-254] |  | 101 to 500 nM |  |  |  |  |
| C=CC(=O)N[C@H]1COC[C@H]1Nc1ncc2cc(-c3c(Cl)c(OC)cc(OC)c3Cl)c(=O)n(C[C@@H]3CCN(C(C)=O)C3)c2n1 [Compound I-307] | < 100 nM |  | < 100 nM | 101 to 500 nM |  |  |
| C=CC(=O)NC1CN(C)CC1Nc1ncc2c(n1)N(C)C(=O)N(c1c(Cl)c(OC)cc(OC)c1Cl)C2 (racemic) [Compound I-138] | 101 to 500 nM |  |  |  |  |  |
| C=CC(=O)N[C@H]1COC[C@H]1Nc1ncc2cc(-c3c(Cl)c(OC)cc(OC)c3Cl)c(=O)[nH]c2n1 [Compound I-290] | < 100 nM |  | < 100 nM | < 100 nM |  |  |
| C=CC(=O)N[C@H]1COC[C@H]1Nc1ncc2cc(-c3c(Cl)c(OC)cc(OC)c3Cl)c(=O)nc-2n1CCF [Compound I-304] | < 100 nM |  | < 100 nM |  |  |  |
| C=CC(=O)N[C@H]1COC[C@H]1Nc1ncc2cc(-c3cc(OC)cc(OC)c3F)c(=O)n(C)c2n1 [Compound I-274] | < 100 nM |  | < 100 nM |  |  |  |
| C=CC(=O)N[C@H]1COC[C@H]1Nc1ncc2cc(-c3cc(OC)cc(OC)c3Cl)c(=O)nc-2n1C [Compound I-306] | < 100 nM |  | < 100 nM |  |  |  |
| C=CC(=O)NC1CN(C(C)=O)CC1Nc1ncc2c(n1)N(C)C(=O)N(c1c(Cl)c(OC)cc(OC)c1Cl)C2 (racemic) [Compound I-139] | < 100 nM |  |  |  |  |  |
| C=CC(=O)N[C@H]1COC[C@H]1Nc1ncc2cc(-c3c(C)c(OC)cc(OC)c3C)c(=O)n(C)c2n1 [Compound I-294] |  |  |  | 101 to 500 nM |  |  |
| C=CC(=O)N[C@H]1COC[C@H]1Nc1ncc2cc(-c3cc(OC)cc(OC)c3Cl)c(=O)n(CC3CCN(C(C)=O)C3)c2n1 (stereo partly shown) [Compound I-308] | < 100 nM | 101 to 500 nM | < 100 nM |  |  |  |
| C=CC(=O)NC1CCCCC1Nc1ncc2c(n1)N(CCF)C(=O)N(c1c(Cl)c(OC)cc(OC)c1Cl)C2 (racemic) [Compound I-106] | 101 to 500 nM |  |  |  |  |  |
| C#CC(=O)N[C@H]1COC[C@H]1Nc1ncc2cc(-c3c(Cl)c(OC)cc(OC)c3Cl)c(=O)n(C)c2n1 [Compound I-251] | < 100 nM |  | < 100 nM |  |  |  |
| C=CC(=O)N[C@H]1COC[C@H]1Nc1ncc2cc(-c3cc(C(=O)Nc4cccc(C(C)(C)C)c4)ccc3Cl)c(=O)n(C)c2n1 [Compound I-265] | < 100 nM |  | < 100 nM |  |  |  |
| C=CC(=O)N[C@H]1COC[C@H]1Nc1ncc2cc(-c3c(Cl)c(OC)cc(OC)c3Cl)c(=O)nc-2n1CC1CCOC1 (stereo partly shown) [Compound I-298] | < 100 nM | < 100 nM | < 100 nM |  |  |  |

Continued, values first:

| IC50 [1] | GI50 [2, 5] | EC50 [3] | GI50 ([2]; Homo sapiens, Huh-7, 120 hr) | GI50 ([4]; Homo sapiens) | GI50 [4] | SMILES |
| --- | --- | --- | --- | --- | --- | --- |
| < 100 nM |  | < 100 nM | 101 to 500 nM | < 100 nM |  | C=CC(=O)Nc1cc(N2CCN(CC)CC2)ccc1Nc1ncc2cc(-c3c(Cl)c(OC)cc(OC)c3Cl)c(=O)n(C)c2n1 [Compound I-269] |
| < 100 nM |  | < 100 nM | 101 to 500 nM | < 100 nM |  | C=CC(=O)Nc1cc(-c2nnnn2C)ccc1Nc1ncc2cc(-c3c(Cl)c(OC)cc(OC)c3Cl)c(=O)n(C)c2n1 [Compound I-276] |
| < 100 nM |  | 101 to 500 nM |  |  |  | C=CC(=O)NC1CC(O)CC1Nc1ncc2cc(-c3c(Cl)c(OC)cc(OC)c3Cl)c(=O)n(C)c2n1 (stereo not shown) [Compound I-284] |
| < 100 nM |  | 101 to 500 nM |  |  |  | C=CC(=O)Nc1c(Nc2ncc3cc(-c4c(Cl)c(OC)cc(OC)c4Cl)c(=O)n(C)c3n2)ccc(F)c1F [Compound I-282] |
| < 100 nM |  | < 100 nM |  |  |  | C=CC(=O)NC1CN(c2ccccn2)CC1Nc1ncc2cc(-c3c(Cl)c(OC)cc(OC)c3Cl)c(=O)n(C)c2n1 (stereo not shown) [Compound I-252] |
| < 100 nM |  | < 100 nM | < 100 nM |  |  | C=CC(=O)N[C@H]1CN(c2cc[nH]n2)C[C@H]1Nc1ncc2cc(-c3c(Cl)c(OC)cc(OC)c3Cl)c(=O)n(C)c2n1 [Compound I-292] |
| < 100 nM |  | < 100 nM | 101 to 500 nM |  |  | C=CC(=O)Nc1cc(F)c(F)cc1Nc1ncc2cc(-c3c(Cl)c(OC)cc(OC)c3Cl)c(=O)n(C)c2n1 [Compound I-257] |
| < 100 nM |  | < 100 nM |  |  |  | C=CC(=O)Nc1cc(-c2cnn(C)c2)ccc1Nc1ncc2cc(-c3c(Cl)c(OC)cc(OC)c3Cl)c(=O)n(C)c2n1 [Compound I-264] |
| < 100 nM |  | < 100 nM | < 100 nM |  |  | C=CC(=O)NC1CN(c2ccn(C)n2)CC1Nc1ncc2cc(-c3c(Cl)c(OC)cc(OC)c3Cl)c(=O)n(C)c2n1 (stereo not shown) [Compound I-248] |
|  |  |  |  | < 100 nM |  | C=CC(=O)N[C@H]1COC[C@H]1Nc1ncc2cc(-c3c(Cl)c(OC)cc(OC)c3Cl)c(=O)n(C)c2n1 [Compound I-241] |
| < 100 nM | 501 to 999 nM | < 100 nM |  |  | < 100 nM | C=CC(=O)Nc1ccccc1Nc1ncc2cc(-c3c(Cl)c(OC)cc(OC(F)F)c3Cl)c(=O)n(C)c2n1 [Compound I-289] |
| < 100 nM |  | < 100 nM |  |  |  | C=CC(=O)Nc1cc(-c2ccn(C)n2)ccc1Nc1ncc2cc(-c3c(Cl)c(OC)cc(OC)c3Cl)c(=O)n(C)c2n1 [Compound I-267] |
| < 100 nM | < 100 nM | < 100 nM |  |  |  | C=CC(=O)N[C@H]1COC[C@H]1Nc1ncc2cc(-c3c(Cl)c(OC)cc(OCC)c3Cl)c(=O)n(C)c2n1 [Compound I-291] |
| < 100 nM |  | < 100 nM |  |  |  | C=CC(=O)NC1CS(=O)(=O)CC1Nc1ncc2cc(-c3c(Cl)c(OC)cc(OC)c3Cl)c(=O)n(C)c2n1 (stereo not shown) [Compound I-256] |
| < 100 nM |  | < 100 nM |  |  |  | C=CC(=O)N[C@H]1COC[C@H]1Nc1ncc2cc(-c3c(Cl)c(OC)cc(OC)c3Cl)c(=O)n(C(C)C)c2n1 [Compound I-296] |
| 101 to 500 nM |  | 101 to 500 nM |  |  |  | C=CC(=O)N[C@@H]1CN(c2cc[nH]n2)C[C@@H]1Nc1ncc2cc(-c3c(Cl)c(OC)cc(OC)c3Cl)c(=O)n(C)c2n1 [Compound I-293] |
| < 100 nM |  | < 100 nM | 101 to 500 nM |  |  | C=CC(=O)Nc1cccc(F)c1Nc1ncc2cc(-c3c(Cl)c(OC)cc(OC)c3Cl)c(=O)n(C)c2n1 [Compound I-259] |
| < 100 nM |  | < 100 nM |  |  |  | C=CC(=O)Nc1ccc(C(F)(F)F)cc1Nc1ncc2cc(-c3c(Cl)c(OC)cc(OC)c3Cl)c(=O)n(C)c2n1 [Compound I-258] |
| < 100 nM |  | < 100 nM |  |  |  | C=CS(=O)(=O)N[C@H]1CCC[C@H]1Nc1ncc2cc(-c3c(Cl)c(OC)cc(OC)c3Cl)c(=O)n(C)c2n1 [Compound I-253] |
|  |  |  | < 100 nM | < 100 nM |  | C=CC(=O)N[C@H]1COC[C@H]1Nc1ncc2cc(-c3c(F)c(OC)cc(OC)c3Cl)c(=O)n(C)c2n1 [Compound I-279] |
| < 100 nM |  | < 100 nM |  |  |  | C=CC(=O)Nc1nc(C)ccc1Nc1ncc2cc(-c3c(Cl)c(OC)cc(OC)c3Cl)c(=O)n(C)c2n1 [Compound I-278] |
| < 100 nM | < 100 nM | < 100 nM |  |  | < 100 nM | C=CC(=O)Nc1ccc(F)c(F)c1Nc1ncc2cc(-c3c(Cl)c(OC)cc(OC)c3Cl)c(=O)n(C)c2n1 [Compound I-285] |
| < 100 nM |  | < 100 nM |  |  |  | C=CC(=O)NC1CC(=O)CC1Nc1ncc2cc(-c3c(Cl)c(OC)cc(OC)c3Cl)c(=O)n(C)c2n1 (stereo not shown) [Compound I-286] |
| < 100 nM |  | < 100 nM |  |  |  | C=CC(=O)NC1CC(F)(F)CC1Nc1ncc2cc(-c3c(Cl)c(OC)cc(OC)c3Cl)c(=O)n(C)c2n1 (stereo not shown) [Compound I-288] |
